Assay results as given in patent publication US20250195530A1, “POLQ INHIBITORS” (ASTRAZENECA AB, priority 2022, published 2025).
Like-named read-outs stand apart in the source and are kept apart here.

Experiments:
DLD-1 BRCA2−/− cells = experiment: Homologous recombination synthetic lethal inhibition of proliferation, DLD-1 BRCA2-/- (Cell Titre Glo 3D); assay type: cell-based; details: Homo sapiens, read-out: POLQ PD Prolif Lumin (converted)
Summary of the method: (§1)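 Read-out: CellTiter-Glo 3D luminescence, day 7 for wt DLD-1, day 12 for BRCA2−/−, about 8-9 population doublings each. Seeding 1,500 or 3,000 cells/mL respectively. Dose range 10 μM–0.51 nM, 3-fold, 10 points, with re-dosing on day 6. IC50 from curve fit.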

DLD-1 cells = experiment: Inhibition of proliferation, DLD-1 BRCA2 wt control (Cell Titre Glo 3D); assay type: cell-based; details: Homo sapiens, read-out: POLQ PD Prolif Lumin (converted)
Summary of the method: as §1

[1] = DLD-1, proliferation, luminescence, taken as DLD-1 BRCA2-/-
[2] = DLD-1, proliferation, luminescence, second Prolif column (c6), taken as DLD-1 BRCA2 wt control
[3] = DLD-1, first proliferation column (c5), DLD-1 BRCA2-/-
[4] = DLD-1, second proliferation column (c6), DLD-1 BRCA2 wt control

| SMILES | IC50 (DLD-1 BRCA2−/− cells; [1]) [nM] | IC50 (DLD-1 cells; [2]) [nM] | IC50 (DLD-1 BRCA2−/− cells; [3]) [nM] | IC50 (DLD-1 cells; [4]) [nM] |
| --- | --- | --- | --- | --- |
| CC1(Oc2ncnc3c2nc(-c2ccc(OCCCCCC(=O)O)cc2Cl)n3Cc2cccc(Cl)c2)CC1 [Example T437, 6-(3-chloro-4-(9-(3-chlorobenzyl)-6-(1-methylcyclopropoxy)-9H-purin-8-yl)phenoxy)hexanoic acid] | 63.1 | > 10000 |  |  |
| CC1(Oc2ncnc3c2nc(-c2cccc(OCCCCCC(=O)O)c2Cl)n3Cc2cccc(Cl)c2)CC1 [Example T440, 6-(2-chloro-3-(9-(3-chlorobenzyl)-6-(1-methylcyclopropoxy)-9H-purin-8-yl)phenoxy)hexanoic acid] | 25.1 | > 10000 |  |  |
| CC1(Oc2ncnc3c2nc(-c2ccc(OCCCCOCC(=O)O)cc2Cl)n3Cc2cccc(Cl)c2)CC1 [Example T445, 2-(4-(3-chloro-4-(9-(3-chlorobenzyl)-6-(1-methylcyclopropoxy)-9H-purin-8-yl)phenoxy)butoxy)acetic acid] | 251 | > 10000 |  |  |
| CC1(Oc2ncnc3c2nc(-c2cccc(OCCCCOCC(=O)O)c2Cl)n3Cc2cccc(Cl)c2)CC1 [Example T448, 2-(4-(2-chloro-3-(9-(3-chlorobenzyl)-6-(1-methylcyclopropoxy)-9H-purin-8-yl)phenoxy)butoxy)acetic acid] | 79.4 | > 10000 |  |  |
| CC1(Oc2ncnc3c2nc(-c2ccc(OCCCOCCC(=O)O)cc2Cl)n3Cc2cccc(Cl)c2)CC1 [Example T449, 3-(3-(3-chloro-4-(9-(3-chlorobenzyl)-6-(1-methylcyclopropoxy)-9H-purin-8-yl)phenoxy)propoxy)propanoic acid] | 50.1 | > 10000 |  |  |
| CC1(Oc2ncnc3c2nc(-c2ccc(OCCOC(C)(C)C(=O)O)cc2Cl)n3Cc2cccc(Cl)c2)CC1 [Example T450, 2-(2-(3-chloro-4-(9-(3-chlorobenzyl)-6-(1-methylcyclopropoxy)-9H-purin-8-yl)phenoxy)ethoxy)-2-methylpropanoic acid] | 200 | > 10000 |  |  |
| CC1(Oc2ncnc3c2nc(-c2ccc(OCCOCCOCC(=O)O)cc2Cl)n3Cc2cccc(Cl)c2)CC1 [Example T451, 2-(2-(2-(3-chloro-4-(9-(3-chlorobenzyl)-6-(1-methylcyclopropoxy)-9H-purin-8-yl)phenoxy)ethoxy)ethoxy)acetic acid] | 501 | > 10000 |  |  |
| CC1(Oc2ncnc3c2nc(-c2ccc(OCCCN4CC(O)C4)cc2Cl)n3Cc2cc(C(F)F)ccn2)CC1 [Example T452, 1-(3-(3-chloro-4-(9-((4-(difluoromethyl)pyridin-2-yl)methyl)-6-(1-methylcyclopropoxy)-9H-purin-8-yl)phenoxy)propyl)azetidin-3-ol] | 794 | > 10000 |  |  |
| CC1(Oc2ncnc3c2nc(-c2ccc(OCCN4CCNCC4)cc2C(F)(F)F)n3Cc2cc(Cl)ccn2)CC1 [Example T453, 9-((4-chloropyridin-2-yl)methyl)-6-(1-methylcyclopropoxy)-8-(4-(2-(piperazin-1-yl)ethoxy)-2-(trifluoromethyl)phenyl)-9H-purine] | 251 | > 10000 |  |  |
| Cc1ccnc(Cn2c(-c3ccc(OC4CC5(CNC5)C4)cc3Cl)nc3c(OC4(C)CC4)ncnc32)c1 [Example T457, 8-(4-((2-azaspiro[3.3]heptan-6-yl)oxy)-2-chlorophenyl)-6-(1-methylcyclopropoxy)-9-((4-methylpyridin-2-yl)methyl)-9H-purine] | 316 | > 10000 |  |  |
| Cc1ccnc(Cn2c(-c3ccc(C(=O)N4CCC(O)CC4)cc3Cl)nc3c(OC4(C)CC4)ncnc32)c1 [Example T460, (3-chloro-4-(6-(1-methylcyclopropoxy)-9-((4-methylpyridin-2-yl)methyl)-9H-purin-8-yl)phenyl)(4-hydroxypiperidin-1-yl)methanone] | 3160 | > 10000 |  |  |
| Cc1ccnc(Cn2c(-c3ccc(CC(=O)N4CC(C)(O)C4)cc3Cl)nc3c(OC4(C)CC4)ncnc32)c1 [Example T470, 2-(3-chloro-4-(6-(1-methylcyclopropoxy)-9-((4-methylpyridin-2-yl)methyl)-9H-purin-8-yl)phenyl)-1-(3-hydroxy-3-methylazetidin-1-yl)ethan-1-one] | 1000 | > 10000 |  |  |
| Cc1ccnc(Cn2c(-c3ccc(OC4CN(C(=O)[C@@H](C)O)C4)cc3Cl)nc3c(OC4(C)CC4)ncnc32)c1 [Example T482, (R)-1-(3-(3-chloro-4-(6-(1-methylcyclopropoxy)-9-((4-methylpyridin-2-yl)methyl)-9H-purin-8-yl)phenoxy)azetidin-1-yl)-2-hydroxypropan-1-one] | 316 | > 10000 |  |  |
| CC1(Oc2ncnc3c2nc(-c2ccc(OCCN4CCNCC4)cc2Cl)n3Cc2ccc(C#N)cn2)CC1 [Example T484, 6-((8-(2-chloro-4-(2-(piperazin-1-yl)ethoxy)phenyl)-6-(1-methylcyclopropoxy)-9H-purin-9-yl)methyl)nicotinonitrile] |  |  | > 7940 | > 10000 |
| CC1(Oc2ncnc3c2nc(-c2ccc(OCCN4CCNCC4)cc2Cl)n3Cc2cc(C(F)F)ccn2)CC1 [Example T488, 8-(2-chloro-4-(2-(piperazin-1-yl)ethoxy)phenyl)-9-((4-(difluoromethyl)pyridin-2-yl)methyl)-6-(1-methylcyclopropoxy)-9H-purine] |  |  | 1000 | > 10000 |
| Cc1ccnc(Cn2c(-c3ccc(CN4CC5(CCN5)C4)cc3Cl)nc3c(OC4(C)CC4)ncnc32)c1 [Example T489, 8-(4-((1,6-diazaspiro[3.3]heptan-6-yl)methyl)-2-chlorophenyl)-6-(1-methylcyclopropoxy)-9-((4-methylpyridin-2-yl)methyl)-9H-purine] |  |  | 794 | 5010 |
| Cc1ccnc(Cn2c(-c3ccc(CC(=O)N4CCNCC4)cc3Cl)nc3c(OC4(C)CC4)ncnc32)c1 [Example T495, 2-(3-chloro-4-(6-(1-methylcyclopropoxy)-9-((4-methylpyridin-2-yl)methyl)-9H-purin-8-yl)phenyl)-1-(piperazin-1-yl)ethan-1-one] |  |  | 794 | > 10000 |
| Cc1ccnc(Cn2c(-c3ccc(C(=O)N4CCCNCC4)cc3Cl)nc3c(OC4(C)CC4)ncnc32)c1 [Example T496, (3-chloro-4-(6-(1-methylcyclopropoxy)-9-((4-methylpyridin-2-yl)methyl)-9H-purin-8-yl)phenyl)(1,4-diazepan-1-yl)methanone] |  |  | > 10000 | > 10000 |
| CC1(Oc2ncnc3c2nc(-c2ccc(OCCCN4CC[C@@H](O)C4)cc2Cl)n3Cc2cc(Cl)ccn2)CC1 [Example T502, (R)-1-(3-(3-chloro-4-(9-((4-chloropyridin-2-yl)methyl)-6-(1-methylcyclopropoxy)-9H-purin-8-yl)phenoxy)propyl)pyrrolidin-3-ol] |  |  | 126 | > 7940 |
| CC1(Oc2ncnc3c2nc(-c2ccc(OCCCN4CC[C@H](O)C4)cc2Cl)n3Cc2cc(Cl)ccn2)CC1 [Example T503, (S)-1-(3-(3-chloro-4-(9-((4-chloropyridin-2-yl)methyl)-6-(1-methylcyclopropoxy)-9H-purin-8-yl)phenoxy)propyl)pyrrolidin-3-ol] |  |  | 100 | > 7940 |
| Cc1ccnc(Cn2c(-c3ccc(OCCN4CCNCC4)cc3Cl)nc3c(OC4(C)CC4)ncnc32)c1F [Example T504, 8-(2-chloro-4-(2-(piperazin-1-yl)ethoxy)phenyl)-9-((3-fluoro-4-methylpyridin-2-yl)methyl)-6-(1-methylcyclopropoxy)-9H-purine] |  |  | 2000 | > 10000 |
| Cc1ccnc(Cn2c(-c3ccc(CCN4CCCC4)cc3Cl)nc3c(OC4(C)CC4)ncnc32)c1 [Example T505, 8-(2-chloro-4-(2-(pyrrolidin-1-yl)ethyl)phenyl)-6-(1-methylcyclopropoxy)-9-((4-methylpyridin-2-yl)methyl)-9H-purine] |  |  | 158 | > 10000 |
| Clc1cc(OCCN2CCNCC2)ccc1-c1nc2c(OC3CCC3)ncnc2n1Cc1ccccc1 [Example T506, 9-benzyl-8-(2-chloro-4-(2-(piperazin-1-yl)ethoxy)phenyl)-6-cyclobutoxy-9H-purine] |  |  | 501 | 2000 |
| Cc1ccnc(Cn2c(-c3ccc(OCCN4CCCC4)cc3Cl)nc3c(OC4(C)CC4)ncnc32)c1 [Example T507, 8-(2-chloro-4-(2-(pyrrolidin-1-yl)ethoxy)phenyl)-6-(1-methylcyclopropoxy)-9-((4-methylpyridin-2-yl)methyl)-9H-purine] |  |  | 100 | > 10000 |
| Cc1ccnc(Cn2c(-c3ccc(CN4CCC(O)CC4)cc3Cl)nc3c(OC4(C)CC4)ncnc32)c1 [Example T508, 1-(3-chloro-4-(6-(1-methylcyclopropoxy)-9-((4-methylpyridin-2-yl)methyl)-9H-purin-8-yl)benzyl)piperidin-4-ol] |  |  | 316 | > 10000 |
| Cc1ccnc(Cn2c(-c3ccc(CCN4CC[C@@H](O)C4)cc3Cl)nc3c(OC4(C)CC4)ncnc32)c1 [Example T511, (R)-1-(3-chloro-4-(6-(1-methylcyclopropoxy)-9-((4-methylpyridin-2-yl)methyl)-9H-purin-8-yl)phenethyl)pyrrolidin-3-ol] |  |  | 316 | > 10000 |
| Cc1ccnc(Cn2c(-c3ccc(OCCN4CC[C@@H](O)C4)cc3Cl)nc3c(OC4(C)CC4)ncnc32)c1 [Example T512, (R)-1-(2-(3-chloro-4-(6-(1-methylcyclopropoxy)-9-((4-methylpyridin-2-yl)methyl)-9H-purin-8-yl)phenoxy)ethyl)pyrrolidin-3-ol] |  |  | 200 | > 10000 |
